For assay [1], the system named is SUM-159 xenografts. The assay can be described thus: In vivo anti-tumor efficacy study in SUM-159 xenografts. As to conditions: authors' response in review process file. An excerpt:
EMBO Molecular Medicine - Peer Review Process File altering the spliciosome in non transformed cells (i.e. human mammary epithelial cells or MCF10A immortalized but not transform cells)
Although alternative splicing of BCLAF1 is reported to have an additional function in colorectal cancer (Zhou et al, 2014), the reported AS variant was different from the AS variant (lacking exon […]
AS in both cancer cell lines (HCT116) and untransformed cell lines (hTERT) (Funnell et al, 2017). […]
specific to transformed cells.
BJ) had relatively low expression of CLK2 and less growth-suppressive sensitivity to T-025 (Fig […]
rendered cancer cells more sensitive to T-025. […]
short-term treatment with T-025 causes apoptosis only in cancer cells with high expression of CLK2 or with activated MYC, but not in normal tissue. Therefore, in the mouse model, intermittent […]
- Figure 4 D, E, and F: it is not specified the name of all cancer dell lines used in the study. This is […]
relevant the work. If only SKBR3 and AU565 cell lines have a high MYC CVN, and consequently are more sensitive to T-025, why did the authors use MDA-MB 468 cell line to do the experiments of Figure 2 and 3? Please clarify. In addition, confirmation in an alternative breast cancer cell line is […]

In assay [2] the target is DYRK1B (Homo sapiens, UniProt Q9Y463). Nature of the assay: KINOMEScan-based kinase selectivity assay. The class given is binding. Also noted: purchased DiscoverX Corporation (Fremont, CA, USA). The protocol:
(§1) The KINOMEScan‐based kinase selectivity assay was performed at the DiscoverX Corporation (Fremont, CA, USA). The panel of growth inhibition assay and subsequent bioinformatics analysis (Fig EV1) were performed at Eurofins Inc. (St. […] Details of the procedures of cell proliferation assay, caspase‐3/7 activity assay, immunoblotting, and immunohistochemistry are described in Appendix Supplementary Methods.

For assay [3], the target named is HIPK2 (Homo sapiens, UniProt Q9H2X6). Nature of the assay: KINOMEScan-based kinase selectivity assay. In kind it is binding. Also noted: purchased DiscoverX Corporation (Fremont, CA, USA). The protocol: as §1
The target in assay [4] is T1, HIPK4 (Homo sapiens, UniProt Q8NE63).
T1 construct: purchased DiscoverX Corporation (Fremont, CA, USA)
Nature of the assay: KINOMEScan-based kinase selectivity assay. In kind it is binding. The conditions noted are these: 300 nmol/L, n = 2. The protocol: (§2) The KINOMEScan‐based kinase selectivity assay was performed at the DiscoverX Corporation (Fremont, CA, USA). The panel of growth inhibition assay and subsequent bioinformatics analysis (Fig EV1) were performed at Eurofins Inc. (St. Charles, MO, USA), using OncoPanel 240 or 60. Details of the procedures of cell proliferation assay, caspase‐3/7 activity assay, immunoblotting, and immunohistochemistry are described in Appendix Supplementary Methods.

In assay [5] the target is T2, HIPK3 (Homo sapiens, UniProt Q9H422).
T2 construct: purchased DiscoverX Corporation (Fremont, CA, USA)
The assay can be described thus: KINOMEScan-based kinase selectivity assay. The class given is binding. The conditions noted are these: 300 nmol/L, n = 2. The protocol:
as §2

The target in assay [6] is T3, FLT3 D835Y (Homo sapiens, UniProt P36888, D835Y).
T3 construct: purchased DiscoverX Corporation (Fremont, CA, USA)
The assay can be described thus: KINOMEScan-based kinase selectivity assay. The class given is binding. As to conditions: 300 nmol/L, n = 2. The protocol: as §2

For assay [7], the system named is xenografts derived from AML patient (PDX). Nature of the assay: Efficacy study in patient-derived xenograft model of acute myeloid leukemia. The class given is in vivo, NOG mice. As to conditions: 25 and 50 mg/kg, twice daily at twice weekly. The source says:
To establish the patient‐derived xenograft model, a small piece of tumor purchased from Dr. Naoe at Nagoya University was subcutaneously inoculated into NOG mice (7‐ to 8‐week‐old females, CIEA Japan, Inc., Kanagawa, Japan). After three rounds of in vivo propagation, tumors were used for efficacy assessment.
Tumor volume=long diameter×short diameter×short diameter×(1/2)
Mice having a tumor of size approximately 200 mm^3 were used in efficacy or in vivo pharmacodynamics studies. T‐025 was dissolved in 0.5% methylcellulose solution. For the efficacy study, after randomized grouping, mice were treated with T‐025 twice daily once or twice weekly for 2 or 3 weeks. The mouse tumor volume and body weight were measured every 2–3 days.

This is an account of results in publication PMC5991599, “Anti‐tumor efficacy of a novel CLK inhibitor via targeting RNA splicing and MYC‐dependent vulnerability” (EMBO Molecular Medicine, 2018).

As usually defined, the Kd is the equilibrium constant for the complex coming apart. The inhibition is the change of the read-out against control, counted positive when it falls. A low value points to a response near the control.

Chain of HIPK2 (Q9H2X6 whole entry): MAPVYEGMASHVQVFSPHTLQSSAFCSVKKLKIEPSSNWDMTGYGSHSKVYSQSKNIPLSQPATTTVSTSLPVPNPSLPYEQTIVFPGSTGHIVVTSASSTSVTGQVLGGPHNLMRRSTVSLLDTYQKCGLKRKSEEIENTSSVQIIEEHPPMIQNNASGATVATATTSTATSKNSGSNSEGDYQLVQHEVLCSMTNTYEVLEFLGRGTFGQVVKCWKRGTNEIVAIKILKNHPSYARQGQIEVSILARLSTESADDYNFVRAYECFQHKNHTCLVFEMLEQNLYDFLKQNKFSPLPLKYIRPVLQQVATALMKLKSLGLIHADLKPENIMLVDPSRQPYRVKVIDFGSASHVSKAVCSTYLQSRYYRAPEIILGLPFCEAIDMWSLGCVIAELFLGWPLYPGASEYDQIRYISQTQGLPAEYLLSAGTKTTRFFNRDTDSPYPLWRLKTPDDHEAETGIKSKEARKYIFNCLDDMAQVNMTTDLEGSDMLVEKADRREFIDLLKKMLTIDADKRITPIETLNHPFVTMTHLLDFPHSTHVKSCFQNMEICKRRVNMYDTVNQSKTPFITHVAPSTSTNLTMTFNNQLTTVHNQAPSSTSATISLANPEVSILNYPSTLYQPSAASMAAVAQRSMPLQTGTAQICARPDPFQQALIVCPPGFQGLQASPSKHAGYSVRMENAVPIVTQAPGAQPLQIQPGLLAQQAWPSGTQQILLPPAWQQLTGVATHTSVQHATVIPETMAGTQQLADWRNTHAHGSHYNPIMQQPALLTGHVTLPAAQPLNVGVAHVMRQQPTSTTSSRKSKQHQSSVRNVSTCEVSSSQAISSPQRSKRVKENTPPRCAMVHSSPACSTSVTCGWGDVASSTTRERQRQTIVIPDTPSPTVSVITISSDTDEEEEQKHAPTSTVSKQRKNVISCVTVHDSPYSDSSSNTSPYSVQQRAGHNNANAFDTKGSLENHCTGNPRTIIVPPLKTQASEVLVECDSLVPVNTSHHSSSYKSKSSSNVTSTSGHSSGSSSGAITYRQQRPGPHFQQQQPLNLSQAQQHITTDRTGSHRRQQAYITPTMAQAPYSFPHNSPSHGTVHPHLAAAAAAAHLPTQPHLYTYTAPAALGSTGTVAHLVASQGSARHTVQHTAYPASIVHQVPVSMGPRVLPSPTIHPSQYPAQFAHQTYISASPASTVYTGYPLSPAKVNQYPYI
Chain of DYRK1B (Q9Y463 whole entry): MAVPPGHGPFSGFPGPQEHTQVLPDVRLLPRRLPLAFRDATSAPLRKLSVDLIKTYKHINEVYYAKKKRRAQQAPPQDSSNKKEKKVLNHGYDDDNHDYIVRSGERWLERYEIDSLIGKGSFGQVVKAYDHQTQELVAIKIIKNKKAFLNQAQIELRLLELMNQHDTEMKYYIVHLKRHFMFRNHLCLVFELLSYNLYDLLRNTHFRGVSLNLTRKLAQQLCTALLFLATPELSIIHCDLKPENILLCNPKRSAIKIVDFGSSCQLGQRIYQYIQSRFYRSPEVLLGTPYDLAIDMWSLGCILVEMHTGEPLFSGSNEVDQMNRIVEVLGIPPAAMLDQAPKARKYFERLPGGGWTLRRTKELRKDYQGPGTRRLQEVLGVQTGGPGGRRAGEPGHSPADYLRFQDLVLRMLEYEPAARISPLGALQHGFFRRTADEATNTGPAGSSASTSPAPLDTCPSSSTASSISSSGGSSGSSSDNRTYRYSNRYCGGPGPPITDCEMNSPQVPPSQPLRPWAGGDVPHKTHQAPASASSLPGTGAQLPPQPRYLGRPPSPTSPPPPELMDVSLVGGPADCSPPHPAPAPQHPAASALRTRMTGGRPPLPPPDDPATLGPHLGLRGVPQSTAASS
T1 sequence (Q8NE63 whole entry): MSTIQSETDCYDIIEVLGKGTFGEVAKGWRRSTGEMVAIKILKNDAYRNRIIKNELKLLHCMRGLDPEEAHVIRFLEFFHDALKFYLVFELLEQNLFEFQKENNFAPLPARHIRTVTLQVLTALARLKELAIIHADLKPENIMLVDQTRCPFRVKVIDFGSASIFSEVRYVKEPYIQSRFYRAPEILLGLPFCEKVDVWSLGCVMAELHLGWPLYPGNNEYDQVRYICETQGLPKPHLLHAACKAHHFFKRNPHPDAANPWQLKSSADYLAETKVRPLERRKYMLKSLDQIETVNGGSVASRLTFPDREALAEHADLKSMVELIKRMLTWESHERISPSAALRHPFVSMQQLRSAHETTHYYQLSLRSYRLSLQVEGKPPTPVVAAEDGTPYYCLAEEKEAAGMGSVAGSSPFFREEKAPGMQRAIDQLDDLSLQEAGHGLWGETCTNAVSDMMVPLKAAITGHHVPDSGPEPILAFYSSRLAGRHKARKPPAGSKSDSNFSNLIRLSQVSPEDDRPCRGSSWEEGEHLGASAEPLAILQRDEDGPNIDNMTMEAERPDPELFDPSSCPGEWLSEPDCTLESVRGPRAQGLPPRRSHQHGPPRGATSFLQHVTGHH
T2 sequence (Q9H422 whole entry): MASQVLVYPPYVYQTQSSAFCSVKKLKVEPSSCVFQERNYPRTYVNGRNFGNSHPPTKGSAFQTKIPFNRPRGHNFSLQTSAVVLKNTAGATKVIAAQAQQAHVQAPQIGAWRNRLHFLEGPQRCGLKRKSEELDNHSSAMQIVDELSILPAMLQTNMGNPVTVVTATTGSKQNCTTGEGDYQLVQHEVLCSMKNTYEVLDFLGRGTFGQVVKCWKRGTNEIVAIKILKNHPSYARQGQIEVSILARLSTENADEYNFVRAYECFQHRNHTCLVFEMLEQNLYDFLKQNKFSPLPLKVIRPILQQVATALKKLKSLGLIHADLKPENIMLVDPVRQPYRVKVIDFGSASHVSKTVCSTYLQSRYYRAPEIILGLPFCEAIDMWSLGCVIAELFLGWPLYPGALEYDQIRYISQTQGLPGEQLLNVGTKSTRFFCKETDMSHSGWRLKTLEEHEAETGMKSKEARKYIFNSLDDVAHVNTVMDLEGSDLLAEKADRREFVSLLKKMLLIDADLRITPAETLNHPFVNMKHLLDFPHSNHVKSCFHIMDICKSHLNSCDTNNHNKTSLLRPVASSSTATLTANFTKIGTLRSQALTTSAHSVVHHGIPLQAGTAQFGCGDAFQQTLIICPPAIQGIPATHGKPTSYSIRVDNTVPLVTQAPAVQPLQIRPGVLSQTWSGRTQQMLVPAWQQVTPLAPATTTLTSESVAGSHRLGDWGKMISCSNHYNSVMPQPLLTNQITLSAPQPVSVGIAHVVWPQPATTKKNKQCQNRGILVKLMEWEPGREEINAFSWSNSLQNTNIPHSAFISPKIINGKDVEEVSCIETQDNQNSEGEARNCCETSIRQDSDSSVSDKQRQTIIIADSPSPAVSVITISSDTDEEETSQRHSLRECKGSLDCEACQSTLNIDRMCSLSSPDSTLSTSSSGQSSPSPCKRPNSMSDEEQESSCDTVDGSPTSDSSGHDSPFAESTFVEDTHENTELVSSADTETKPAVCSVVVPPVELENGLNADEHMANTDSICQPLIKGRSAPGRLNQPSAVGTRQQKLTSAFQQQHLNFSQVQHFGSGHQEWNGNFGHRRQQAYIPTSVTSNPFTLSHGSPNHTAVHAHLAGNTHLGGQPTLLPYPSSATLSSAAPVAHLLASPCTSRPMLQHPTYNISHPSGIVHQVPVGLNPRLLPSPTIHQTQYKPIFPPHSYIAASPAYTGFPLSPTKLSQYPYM

Turning to `CNc1nc(NCc2ncccn2)c2c(-c3ccc4ncccc4c3)c[nH]c2n1` [T-025, N ^2‐methyl‐N ^4‐[pyrimidin‐2‐ylmethyl]‐5‐[quinolin‐6‐yl]‐7H‐pyrrolo[2,3‐d]pyrimidine‐2,4‐diamine], the anti-tumor efficacy entry in assay [1] was “showed significant anti-tumor properties”. Also, the figures for the equilibrium dissociation constant (Kd) in assay [2] and in assay [3] were 1.5 nM and 96 nM, respectively. Further, the inhibition at 0.3 µM was 99.6% in assay [2] (300 nmol/L, n = 2); 96% in assay [3] (300 nmol/L, n = 2); 95.6% in assay [4]; 95.1% in assay [5]; 93.3% in assay [6]. Also, the “anti-tumor efficacy, tumor volume” value in assay [7] is on record as “profound anti‐tumor efficacies”.
